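Cells were grown in 96-well plates and exposed to each compound for 48 hours at five concentrations; endpoints were interpolated linearly between bracketing concentrations, or set to the highest concentration if not reached. At the TGI there is no net growth.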
Experiments:
Test in all cases: inhibition of tumour cell growth, NCI panel, 48 h
[1] = test system: SF-539 CNS
[2] = test system: IGROV1 ovarian
[3] = test system: HOP-18 NSCLC
[4] = test system: DMS 114 small cell lung
[5] = test system: EKVX NSCLC
[6] = test system: PC-3 prostate
[7] = test system: SF-268 CNS
[8] = test system: HOP-92 NSCLC
[9] = test system: K-562 leukemia
[10] = test system: HS 578T breast

`Cc1cc2c(cc1C)[n+](=O)c(C(=O)/C=C/c1ccc3c(c1)OCO3)c(C)n2[O-]` showed a TGI [1] of over 100 µM, a TGI [2] of over 81.5 µM and a TGI [3] of over 100 µM. It also gave a TGI [4] of over 84.5 µM, a TGI [5] of over 100 µM and a TGI [6] of over 100 µM. For the same compound, the TGI [7] was over 76.9 µM, the TGI [8] was 69.1 µM and the TGI [9] was over 100 µM. The TGI [10] was 64 µM.
Compound `COC1(OC)C2(Cl)C(Cl)=C(Cl)C1(Cl)C1c3ccc(C(C)=O)c4cccc(c34)C12` (stereo not given) has a TGI [1] of over 100 µM, a TGI [2] of over 100 µM and a TGI [3] of over 100 µM. For the same compound, the TGI [4] was over 100 µM, the TGI [5] was over 100 µM and the TGI [6] was over 100 µM. For the same compound, the TGI [7] was over 100 µM, the TGI [8] was 22.1 µM and the TGI [9] was over 100 µM. It also gave a TGI [10] of over 100 µM.
